Target: T1, human MMP-13 catalytic domain (hMMP-13CD) (Homo sapiens, UniProt P45452)
T1 construct: a human MMP-13 catalytic domain (“hMMP-13CD”)
Experiment: Inhibition of MMP-13 catalytic domain (thiopeptolide substrate hydrolysis, IC50)
Type: biochemical
Text: The assays measure the amount by which a test compound reduces the hydrolysis of a thiopeptolide substrate catalyzed by a matrix metalloproteinase enzyme. Such assays are described in detail by Ye et al., in Biochemistry, 1992;31(45):11231-11235, which is incorporated herein by reference. One such assay is described below in Biological Method 1.
Some of the particular methods described below use the catalytic domain of the MMP-13 enzyme, namely matrix metalloproteinase-13 catalytic domain (“MMP-13CD”), rather than the corresponding full-length enzyme, MMP-13. It has been shown previously by Ye Qi-Zhuang, Hupe D., and Johnson L. (Current Medicinal Chemistry, 1996;3:407-418) that inhibitor activity against a catalytic domain of an MMP is predictive of the inhibitor activity against the respective full-length MMP enzyme.
Thiopeptolide substrates show virtually no decomposition or hydrolysis at or below neutral pH in the absence of a matrix metalloproteinase enzyme. A typical thiopeptolide substrate commonly utilized for assays is Ac-Pro-Leu-Glythioester-Leu-Leu-Gly-OEt. […] The change in absorbance at 405 nm is monitored on a Thermo Max microplate reader (molecular Devices, Menlo Park, Calif.) at room temperature (22° C.). […]
Some representative compounds of Formula I have been evaluated for their ability to inhibit MMP-13. […]

IC50: > 50 µM
Structure (SMILES): O=C(O)c1ccc(Cn2ccc3ccc(C#CCn4ccnn4)cc3c2=O)cc1 [4-[1-oxo-7-(3-[1,2,3]triazol-1-ylprop-1-ynyl)-1H-isoquinolin-2-ylmethyl]benzoic acid]
